From patent US20190167771A1, “CONTROL ANGIOGENESIS BY REGULATING PHOSPHORYLATION OF SERYL-tRNA SYNTHETASE (SerRS)” (The Scripps Research Institute, priority 2016, published 2019)

Tested on: MDA-MB-231 cells
Assay: MDA-MB-231 tumor xenograft model, tumor angiogenesis and growth
Type: in vivo, mouse
Details: for tumor angiogenesis (CD31 staining): MDA-MB-231 stably transfected with human SerRS gene (~10-fold overexpression), NSG mice, two weeks
Source text: In FIG. 5A, human breast cancer cells MDA-MB-231 were stably transfected with human wild type (SerRS^WT) and mutant SerRS (SerRS^AA, SerRS^DD). The expression of SerRS was monitored by immunoblot. In FIGS. 5B-C, the engineered MDA-MB-231 cells (10^6 per mouse) were implanted into mouse fat pad in mammal glands to form tumor xenografts. 14 days later, tumor xenografts were excised and subjected to immunohistochemistry for CD31 (FIG. 5B) and subsequent quantification of blood vessels (FIG. 5C) (n=5-6). In FIGS. 5D-F, MDA-MB-231 cells (10^6 per mouse) stably transfected with SerRS^WT, SerRS^AA, HIF1-specific shRNA (HIF^KD), both SerRS^AA and HIF^KD or empty vector were implanted into mouse fat pad in mammal glands. The sizes of the tumor xenografts were measured until the mice were sacrificed on 35 days (FIG. 5D) and the tumor angiogenesis was measured by immunohistochemistry for CD31 (FIG. 5E) and VEGFA (FIG. 5F) (n=4-10). Scale bars represent 100 μm.
[…] MDA-MB-231 cells stably transfected with vectors expressing wild type human SerRS, SerRS^S101A/S241A, or SerRS^S101D/S241D were subcutaneously injected into the mammal glands of 6-8-week-old female NOD.Cg-Prkdc^scidIl2rg^tmJWjl/SzJ mice (six mice in each group) (Jackson Laboratory). 14 days after injection, the tumor xenograft were separated from mice and frozen in Tissue-Tek® OCT compound for cryostat sectioning.
5-μm sections from freshly frozen tumor xenograft and matrigel plugs were treated with acetone and 3% H2O2 to block endogenous peroxidase. After 3-5 times wash and goat serum block, the sections were incubated with an anti-CD31 antibody (1:3000; Cell Signaling Technology) overnight at 4° C. The blood vessels were counted in 5-10 random viable fields (120×) in tumor xenograft samples and microvessel density in matrigel plugs was quantified by measuring the CD31 staining density using Image J software. To detect the hypoxia, we incubated the slides with anti-HIF1α antibody (1:100; Novus Biologicals).
This example describes experiments studying the activity of SerRS^S101A/S241A and the effect of SerRS phosphorylation in hypoxia-induced angiogenesis in mammal.
Because hypoxia-induced angiogenesis is critical for solid tumor growth, experiments were performed to determine if hypoxia-induced SerRS phosphorylation/inactivation is important for tumor angiogenesis. Human breast cancer cells MDA-MB-231 were stably transfected with human SerRS^WT, SerRS^S101A/S241A, or SerRS^S101D/S241D gene to give high levels of overexpression (˜10-fold) compare to that of the endogenous protein (FIG. 4D). The engineered cells were implanted subcutaneously into the mammal glands of immune deficient NOD scid gamma (NSG) mice. Two weeks later, the vasculature in the tumor xenografts were examined by CD31 staining (FIGS. 4E and 4F). […]

Substance	tumor angiogenesis (CD31 staining)	angiogenesis and tumor growth compared with HIF-1 knockdown (murine model of triple negative human breast cancer, overexpression)
SerRS^S101A/S241A: phosphorylation-deficient human SerRS double mutant, serine 101 and 241 to alanine, SEQ ID NO: 4 (mouse version in matrigel assay)	much stronger inhibition of angiogenesis compared to SerRS^WT	suppress angiogenesis and tumor growth much more robustly than the knockdown of HIF-1
SerRS^S101D/S241D: SerRS with double substitutions of S101 and S241 with aspartic acid, mimics the phosphorylated SerRS	strong activity in promoting tumor angiogenesis	–
SerRS^WT: wildtype human seryl-tRNA synthetase protein, SEQ ID NO: 1 (mouse wild type used in the 3B11 matrigel assay)	suppressed tumor angiogenesis	–
